Data as given in patent US20200297746A1, “COMPOSITION FOR REDUCING WEIGHT AND LOWERING LIPID, PREPARATION METHOD THEREFOR AND USE THEREOF” (CATCH BIO-SCIENCE & TECHNOLOGY CO., LTD., priority 2017, published 2020).

Key:
[1] = tested on: hyperlipemia model rats fed with the high-fat feed; experiment: Blood lipid lowering effect in rats fed high-fat feed, serum biochemical parameters by enzymatic method; type: in vivo, male Spague-Dawlay (SD) Rats; details: high-fat feed SD rats, 80 mg/kg via lavage once daily for 7 weeks, x ± s, n = 10
Source text: The feed is commercially available. The high-fat feed comprises 75% base feed, 2% cholesterol, 0.5% sodium cholate, 15% lard, and 7.5% egg yolk. 150 male Spague-Dawlay (SD) Rats of clean grade, each aged 4 weeks and weighed 150-180 g, are provided by Shanghai Lingchang Biotechnology Co., Ltd. The rats are fed in separate plastic cages, given free access to water and feed for 7 days to adapt to the environment, and then quarantined.
140 rats of similar weight are selected from the 150 rats, randomly divided into 14 groups, with 10 rats in each group, including experimental groups 1-8, comparative experiment groups 1-4, a model control group and a blank control group. Rats in the blank control group are fed with the base feed, and rats in other groups are fed with the high-fat feed.
Rats in the experimental groups 1-8 are respectively administered via lavage with 80 mg/kg of the pharmaceutical compositions prepared in Examples 1-8; rats in the comparative experiment groups 1-4 are respectively administered via lavage with 80 mg/kg of phloridzin, 80 mg/kg of the extract from Curcuma longa L., 80 mg/kg of epigallocatechin gallate and 80 mg/kg of the extract from sennae folium; and rats in the model control group and the blank control group are administered via lavage with equivalent amounts of saline.
Rats in each group receive administration once daily for 7 continuous weeks.
(3) After 7 weeks of administration, blood are collected from orbital posterior venous plexus of the rats and analyzed with an enzymatic method on a full-automatic biochemical analyzer to quantitatively determine levels of triglycerides (TG), total cholesterol (TC), high density lipoprotein cholesterol (HDL-C), and low density lipoprotein cholesterol (LDL-C) in serum.
Data processing is performed using SPSS 20.0 software. Differences between the groups are analyzed using a single-factor variance analysis.

[2] = tested on: obesity model rats fed with the high-fat feed; experiment: Weight reducing effect in rats fed high-fat feed, 7 weeks of administration via lavage; type: in vivo, male Spague-Dawlay (SD) Rats; details: high-fat feed SD rats, 80 mg/kg via lavage once daily for 7 weeks, x ± s, n = 10
Source text: The feed is commercially available. The high-fat feed comprises 75% base feed, 2% cholesterol, 0.5% sodium cholate, 15% lard, and 7.5% egg yolk. 150 male Spague-Dawlay (SD) Rats of clean grade, each aged 4 weeks and weighed 150-180 g, are provided by Shanghai Lingchang Biotechnology Co., Ltd. The rats are fed in separate plastic cages, given free access to water and feed for 7 days to adapt to the environment, and then quarantined. 140 rats of similar weight are selected from the 150 rats, randomly divided into 14 groups, with 10 rats in each group, including experimental groups 1-8, comparative experiment groups 1-4, a model control group and a blank control group. Rats in the blank control group are fed with the base feed, and rats in other groups are fed with the high-fat feed. Rats in the experimental groups 1-8 are respectively administered via lavage with 80 mg/kg of the pharmaceutical compositions prepared in Examples 1-8; rats in the comparative experiment groups 1-4 are respectively administered via lavage with 80 mg/kg of phloridzin, 80 mg/kg of the extract from Curcuma longa L., 80 mg/kg of epigallocatechin gallate and 80 mg/kg of the extract from […] folium; and rats in the model control group and the blank control group are administered via lavage with equivalent amounts of saline. Rats in each group receive administration once daily for 7 continuous weeks. (1) After 7 weeks of administration, the weight and weight gain of rats in each group are observed and recorded; (2) Rats are anesthetized with ether, and fat pads surrounding the genitalia and kidney and the fat of the omentum are separated and weighed. A fat-to-weight ratio is calculated according to the following equation: fat-to-weight ratio (%)=(weight of fat surrounding the genitalia+weight of fat surrounding kidney+weight of fat of the omentum)/body weight×100%; Data processing is performed using SPSS 20.0 software. Differences between the groups are analyzed using a single-factor variance analysis.

| Compound | HDL-C [1] [mmol/L] | LDL-C [1] [mmol/L] | TC [1] [mmol/L] | TG [1] [mmol/L] | Body weight gain [2] [g] | Fat-to-weight ratio [2] [%] |
| --- | --- | --- | --- | --- | --- | --- |
| O=C(CCc1ccc(O)cc1)c1c(O)cc(O)cc1O[C@@H]1O[C@H](CO)[C@@H](O)[C@H](O)[C@H]1O [Comparative experiment Group 1, phloridzin] | 0.72 ± 0.10 | 0.49 ± 0.10 | 2.21 ± 0.51 | 1.56 ± 0.39 | 161.35 ± 20.01 | 5.87 ± 0.72 |
| O=C(O[C@@H]1Cc2c(O)cc(O)cc2O[C@@H]1c1cc(O)c(O)c(O)c1)c1cc(O)c(O)c(O)c1 [Comparative experiment Group 3, epigallocatechin gallate] | 0.59 ± 0.12 | 0.55 ± 0.12 | 2.55 ± 0.43 | 1.77 ± 0.41 | 189.76 ± 22.25 | 7.48 ± 0.53 |
